Assay results: patent US20240076666A1, “Immunomodulators Targeting MORC3 for Interferon Induction” (The Regents of the University of California, priority 2021, published 2024)

System: BLaER1 monocytes
Test: Ectopic doxycycline-inducible expression of virulence factors, IFN induction by q-RT-PCR
Type: cell-based, human
Conditions: doxycycline-inducible lentiviral expression in BLaER1 monocytes, doxycycline 24 h; gene expression by q-RT-PCR
Description: BLaER1, U937 and THP-1 cells were cultured in RPMI Medium 1640 supplemented with L-glutamine, sodium pyruvate, 100 U/ml penicillin-streptomycin (Thermo Fisher) and 10% (v/v) FCS (Omega Scientific). HEK293T, U2OS and HCT116 cells were cultivated in DMEM Medium (Thermo Fisher) containing the same supplements. 1.4 million BLaER1 cells per well of a 6-well plate were trans-differentiated into monocytes for 5-6 days in medium containing 10 ng/ml of hrIL-3, 10 ng/ml hr-CSF-1 (M-CSF) (both PeproTech) and 100 nM β-Estradiol (Sigma-Aldrich) as previously described. 1.4 million THP-1 and U937 cells per well of a 6-well plate were differentiated overnight with 100 ng/ml PMA (Sigma-Aldrich). STING-deficient and corresponding control THP1 and U937 cells were a gift from Dan Stetson (University of Washington). BLaER1 cells were a gift from Thomas Graf (CRG, Barcelona, Spain) and Veit Hornung (LMU Munich, Germany). U2OS cells were a gift from Robert Tjian and Xavier Darzacq (UC Berkeley). THP1 cells were from ATCC. U937 cells were from the UC Berkeley Cell Culture Facility. HCT116 cells were a gift from David Raulet (UC Berkeley). […]
Gene expression was quantified by quantitative PCR with reverse transcription (RT-qPCR). […] SYBRGreen dye (Thermo Fisher Scientific) was used for quantitative PCR assays and analyzed with a real-time PCR system (StepOnePlus; Applied Biosystems). […]

Substance | IFN induction (IFN response)
ICP0 D199A: predominantly nuclear variant of ICP0 | not impaired in IFN induction
ICP0: key virulence factor of Herpes Simplex Virus-1, SUMO-directed E3 ubiquitin ligase; Accession No. YP_009137074.1, SEQ ID NO: 2 | led to an IFN response
